This note sets out measurements from patent publication US20170369492A1 (Takeda Pharmaceutical Company Limited, priority 2014, published 2017).

This assay concerns the target T1, human GPR43 (Homo sapiens, UniProt O15552).
T1 construct: expressed in transfected cells
T1 sequence (O15552 1-330): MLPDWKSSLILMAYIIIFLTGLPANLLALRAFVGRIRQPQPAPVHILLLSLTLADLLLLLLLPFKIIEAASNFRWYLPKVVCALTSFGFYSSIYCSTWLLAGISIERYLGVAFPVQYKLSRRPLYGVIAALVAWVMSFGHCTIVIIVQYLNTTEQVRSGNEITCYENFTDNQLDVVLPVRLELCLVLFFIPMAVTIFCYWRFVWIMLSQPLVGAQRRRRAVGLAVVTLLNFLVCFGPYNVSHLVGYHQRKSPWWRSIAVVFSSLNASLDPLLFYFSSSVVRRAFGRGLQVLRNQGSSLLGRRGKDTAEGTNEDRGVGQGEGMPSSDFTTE
As to the kind of experiment: Ca-Flux Functional Assay: Determination of Agonist/Positive Allosteric Modulator (PAM) Activity. It counts as cell-based. To be noted: CHO-K1 Gα16 cells stably expressing human GPR43; compound added in the presence of EC20 sodium acetate; intracellular Ca2+ by FLIPR; agonist/PAM activity not distinguished. The protocol: Ca-Flux Functional Assay: Determination of Agonist/Positive Allosteric Modulator (PAM) Activity
GPR43 agonist/PAM activity was determined by measuring changes in intracellular calcium levels using a Ca^2+ sensitive fluorescent dye. The changes in fluorescent signal were monitored by FLIPR (manufactured by Molecular Devices). GPR43 mediated increases in intracellular Ca^2+ concentration were readily detected upon activation with sodium acetate. Prior to the assay (24 hours), CHO-K1 Gα16 cells stably expressing human GPR43 were-seeded in cell culture medium in black, clear-bottom 384-well plates (Corning Inc) and grown overnight at 37° C., 5% CO2. On the day of the assay, cell culture media was removed and cells were loaded with Calcium 5 Dye (Molecular Devices) diluted in HBSS containing 25 mM HEPES, 2.5 mM Probenecid, 0.1% BSA for 1 hour at 37° C., 5% CO2. 10 point half log concentration response curves of sodium acetate from 10 mM were conducted prior to the testing of compounds to calculate the sodium acetate concentration that produces 20% of the maximal response (EC20). Test compounds (at to point half log concentration response curves from 10 μM) were added in the presence of sodium acetate to achieve a final concentration that produces approximately 20% maximal response as calculated from the previous experiment. The changes in fluorescent signal were monitored by FLIPR upon addition of the compound/EC20 sodium acetate mix. The EC50 values were determined from ten point concentration response curves. Curves were generated using the average of two wells for each data point.
The above assay detects both GPR43 receptor agonists and positive allosteric modulators of the GPR43 receptor, without distinguishing between the two. Activity in either regard is useful in the treatment of conditions associated with GPR43 receptor activity.

pEC50: −log10 of the molar value.

As for `CC1CCCCC1n1c(N)c(S(=O)(=O)c2ccccc2)c2nccnc21` (mixture of isomers) [Example 44, 5-(2-methylcyclohexyl)-7-(phenylsulfonyl)-5H-pyrrolo[2,3-b]pyrazin-6-amine], the pEC50 is 5.97. The result for `CC1CN(S(=O)(=O)c2c(N)n(C3CCCCC3)c3nccnc23)CC(C)O1` (mixture of isomers) [Example 76, 5-cyclohexyl-7-(2,6-dimethylmorpholine-4-sulfonyl)-5H-pyrrolo[2,3-b]pyrazin-6-amine] reads 5.82. For `Nc1c(S(=O)(=O)c2ccccc2)c2nccnc2n1[C@@H]1C[C@H]2CC[C@@H]1C2` (relative stereo) [Example 53, 5-((1R*,2R*,4S*)-bicyclo[2.2.1]heptan-2-yl)-7-(phenylsulfonyl)-5H-pyrrolo[2,3-b)pyrazin-6-amine], the pEC50 was 6.56. On to `Nc1c(S(=O)(=O)c2ccccc2)c2nccnc2n1C1CCCCC1` [Example 1, 7-(benzenesulfonyl)-5-cyclohexyl-5H-pyrrolo[2,3-b]pyrazin-6-amine], for which the pEC50 is 6.58. In the case of `Cc1ccc(S(=O)(=O)c2c(N)n(C3CCCCCC3)c3nccnc23)cc1` [Example 2, 5-cycloheptyl-7-[(4-methylbenzene)sulfonyl]-5H-pyrrolo[2,3-b]pyrazin-6-amine], the pEC50 is 6.66. For the molecule `Cc1ccc(S(=O)(=O)c2c(N)n(C3CCCCC3)c3nccnc23)cc1` [Example 3], the pEC50 was 6.91.

As to `Cc1ccc(S(=O)(=O)c2c(N)n(C3CCCC3)c3nccnc23)cc1` [Example 4, 5-cyclopentyl-7-[(4-methylbenzene)sulfonyl]-5H-pyrrolo[2,3-b]pyrazin-6-amine], the pEC50 is 6.04.

For `Nc1c(S(=O)(=O)c2ccc(Cl)cc2)c2nccnc2n1C1CCCCC1` [Example 5, 7-[(4-chlorobenzene)sulfonyl]-5-cyclohexyl-5H-pyrrolo[2,3-b]pyrazin-6-amine], the pEC50 was 6.71. Regarding `Nc1c(S(=O)(=O)c2ccc(F)cc2)c2nccnc2n1C1CCCCC1` [Example 6, 5-cyclohexyl-7-[(4-fluorobenzene)sulfonyl]-5H-pyrrolo[2,3-b]pyrazin-6-amine], the pEC50 is 6.52. For the molecule `CC(C)Oc1ccc(S(=O)(=O)c2c(N)n(C3CCCCC3)c3nccnc23)cc1` [Example 7, 5-cyclohexyl-7-{[4-(propan-2-yloxy)benzene]sulfonyl}-5H-pyrrolo[2,3-b]pyrazin-6-amine], the pEC50 is 6.76.

With `Nc1c(S(=O)(=O)c2cccs2)c2nccnc2n1C1CCCCC1` [Example 8, 5-cyclohexyl-7-(thiophene-2-sulfonyl)-5H-pyrrolo[2,3-b]pyrazin-6-amine], the pEC50 was 6.93. Regarding `Nc1c(S(=O)(=O)c2ccccc2)c2ncccc2n1C1CCCCC1` [Example 9, 3-(benzenesulfonyl)-1-cyclohexyl-1H-[3,2-b]pyridin-2-amine], the pEC50 was 5.90. Take `Cc1ccc(S(=O)(=O)c2c(N)n(C3CCCC3)c3cccnc23)cc1` [Example 10, 1-cyclopentyl-3-[(4-methylbenzene)sulfonyl]-1H-pyrrolo[3,2-b]pyridin-2-amine]: the pEC50 is 5.64.

For the molecule `Cc1ccc(S(=O)(=O)c2c(N)n(C3CCCCC3)c3ncccc23)cc1` [Example 11, 1-cyclohexyl-3-[(4-methylbenzene)sulfonyl]-1H-pyrrolo[2,3-b]pyridin-2-amine], the pEC50 was 6.12. Take `Nc1c(S(=O)(=O)C2CCCCC2)c2nccnc2n1C1CCCCC1` [Example 12, 7-(cyclohexanesulfonyl)-5-cyclohexyl-5-pyrrolo[2,3-b]pyrazin-6-amine]: the pEC50 is 6.17. `COc1ccc(S(=O)(=O)c2c(N)n(C3CCC(F)(F)CC3)c3nccnc23)cc1` [Example 13, 5-(4,4-difluorocyclohexyl)-7-[(4-methoxybenzene)sulfonyl]-5H-pyrrolo[2,3-b]pyrazin-6-amine]: the pEC50 is 6.89. `COc1ccc(S(=O)(=O)c2c(N)n(C3CCC(F)(F)CC3)c3ncccc23)cc1` [Example 14, 1-(4,4-difluorocyclohexyl)-3-[(4-methoxybenzene)sulfonyl]-1H-pyrrolo[2,3-b]pyridin-2-amine]: the pEC50 was 6.86. In the case of `Nc1c(S(=O)(=O)c2ccccc2)c2cccnc2n1C1CCCCC1` [Example 15, 3-(benzenesulfonyl)-1-cyclohexyl-1H-pyrrolo[2,3-b]pyridin-2-amine], the pEC50 was 6.42.

Take `Nc1c(S(=O)(=O)c2ccccc2)c2cncnc2n1C1CCCCC1` [Example 16]: the pEC50 is 6.47. The result for `Nc1c(S(=O)(=O)c2ccccc2)c2cccnc2n1C1CCC(F)(F)CC1` [Example 17, 3-(benzenesulfonyl)-1-(4,4-difluorocyclohexyl)-1H-pyrrolo[2,3-b]pyridin-2-amine] reads 6.25; that for `Nc1c(S(=O)(=O)c2ccccc2)c2ncncc2n1C1CCCCC1` [Example 19, 7-(benzenesulfonyl)-5-cyclohexyl-5H-pyrrolo[3,2-d]pyrimidin-6-amine], 5.75; that for `Nc1c(S(=O)(=O)c2ccccc2)c2ccncc2n1C1CCCCC1` [Example 20, 3-(benzenesulfonyl)-1-cyclohexyl-1H-pyrrolo[2,3-]pyridin-2-amine], 5.63. In the case of `Nc1c(S(=O)(=O)c2ccccc2)c2ncccc2n1C1CCC(F)(F)CC1` [Example 21, 3-(benzenesulfonyl)-1-(4,4-difluorocyclohexyl)-1H-pyrrolo[3,2-b]pyridin-2-amine], the pEC50 was 6.55. On to `COc1ccc(S(=O)(=O)c2c(N)n(C3CCC(F)(F)CC3)c3cccnc23)cc1` [Example 22, 1-(4,4-difluorocyclohexyl)-3-[(4-methoxybenzene)sulfonyl]-1H-pyrrolo[3,2-b]pyridin-2-amine], for which the pEC50 is 6.78. With `Nc1c(S(=O)(=O)c2ccccc2)c2cnccc2n1C1CCCCC1` [Example 23, 3-(benzenesulfonyl)-1-cyclohexyl-1H-pyrrolo[3,2-c]pyridin-2-amine], the pEC50 is 5.98. For the molecule `COC(=O)Nc1c(S(=O)(=O)c2ccccc2)c2nccnc2n1C1CCCCC1` [Example 24, methyl N-[7-(benzenesulfonyl)-5-cyclohexyl-5H-pyrrolo[2,3-b]pyrazin-6-yl]carbamate], the pEC50 was 5.59.

Turning to `Cc1ccc2c(S(=O)(=O)c3ccccc3)c(N)n(C3CCC(F)(F)CC3)c2n1` [Example 25, 3-(benzenesulfonyl)-1-(4,4-difluorocyclohexyl)-6-methyl-1H-pyrrolo[2,3-b]pyridin-2-amine], the pEC50 is 5.96. The result for `COc1ncnc2c(S(=O)(=O)c3ccccc3)c(N)n(C3CCCCC3)c12` [Example 26, 7-(benzenesulfonyl)-5-cyclohexyl-4-methoxy-5H-pyrrolo[3,2-d]pyrimidin-6-amine] reads 7.10. Turning to `Nc1c(S(=O)(=O)c2ccccc2)c2cc(Cl)nnc2n1C1CCCCC1` [Example 27, 5-(benzenesulfonyl)-3-chloro-7-cyclohexyl-7H-pyrrolo[2,3-c]pyridazin-6-amine], the pEC50 was 6.56.

Turning to `Nc1c(S(=O)(=O)c2ccccc2)c2ccnnc2n1C1CCCCC1` [Example 28, 5-(benzenesulfonyl)-7-cyclohexyl-7H-pyrrolo[2,3-c]pyridazin-6-amine], the pEC50 was 6.15. Take `CCOc1ncnc2c(S(=O)(=O)c3ccccc3)c(N)n(C3CCC(F)(F)CC3)c12` [Example 29, 7-(benzenesulfonyl)-5-(4,4-difluorocyclohexyl)-4-ethoxy-5H-pyrrolo[3,2-d]pyrimidin-6-amine]: the pEC50 is 7.51.

The term pEC50 denotes the EC50 on a negative log10 scale, so that one unit is a factor of ten.
